Measurements taken from ChEMBL document CHEMBL1126531, “Synthesis of N-Acetylhemiaminal metabolites of opc-21268, vasopressin V1 receptor antagonist” (Bioorg Med Chem Lett, 1993).

Target: Vasopressin V1 receptor (Homo sapiens, UniProt P37288+P47901)
Test: Compound was evaluated for antagonistic activity against vasopressin V1 receptor
Type: functional

SMILES | IC50 [µM]
CC(=O)NC(O)CCOc1ccc(C(=O)N2CCC(N3C(=O)CCc4ccccc43)CC2)cc1 (stereo not drawn) | 0.6
CC(=O)NC(O)CCOc1ccc(C(=O)N2CCC(n3c(=O)ccc4ccccc43)CC2)cc1 (stereo not drawn) | 3.3
CC(=O)NCCCOc1ccc(C(=O)N2CCC(N3C(=O)CCc4ccccc43)CC2)cc1 | 0.44
